Each structure is given as a SMILES string.

The assay concerns the target GST-Xa-hAAK1 (Homo sapiens (Human), UniProt Q2M2I8). Put plainly: AAK1 Kinase Assay. It counts as biochemical. Particulars: bacterially expressed GST-Xa-hAAK1 3.5 nM; ATP 22 μM; fluoresceinated peptide substrate 1.5 μM; 3 hours at room temperature. How it is done: The assays were performed in U-bottom 384-well plates. […] The reactions were initiated by the combination of bacterially expressed, GST-Xa-hAAK1 with substrates and test compounds. The reactions were incubated at room temperature for 3 hours and terminated by adding 60 μl of 35 mM EDTA buffer to each sample. The reactions were analyzed on the Caliper LabChip 3000 (Caliper, Hopkinton, Mass.) by electrophoretic separation of the fluorescent substrate and phosphorylated product. […] Compounds were dissolved at 10 mM in dimethylsulfoxide (DMSO) and evaluated at eleven concentrations. IC50 values were derived by non-linear regression analysis.

GST-Xa-hAAK1, sequence (Q2M2I8 whole entry): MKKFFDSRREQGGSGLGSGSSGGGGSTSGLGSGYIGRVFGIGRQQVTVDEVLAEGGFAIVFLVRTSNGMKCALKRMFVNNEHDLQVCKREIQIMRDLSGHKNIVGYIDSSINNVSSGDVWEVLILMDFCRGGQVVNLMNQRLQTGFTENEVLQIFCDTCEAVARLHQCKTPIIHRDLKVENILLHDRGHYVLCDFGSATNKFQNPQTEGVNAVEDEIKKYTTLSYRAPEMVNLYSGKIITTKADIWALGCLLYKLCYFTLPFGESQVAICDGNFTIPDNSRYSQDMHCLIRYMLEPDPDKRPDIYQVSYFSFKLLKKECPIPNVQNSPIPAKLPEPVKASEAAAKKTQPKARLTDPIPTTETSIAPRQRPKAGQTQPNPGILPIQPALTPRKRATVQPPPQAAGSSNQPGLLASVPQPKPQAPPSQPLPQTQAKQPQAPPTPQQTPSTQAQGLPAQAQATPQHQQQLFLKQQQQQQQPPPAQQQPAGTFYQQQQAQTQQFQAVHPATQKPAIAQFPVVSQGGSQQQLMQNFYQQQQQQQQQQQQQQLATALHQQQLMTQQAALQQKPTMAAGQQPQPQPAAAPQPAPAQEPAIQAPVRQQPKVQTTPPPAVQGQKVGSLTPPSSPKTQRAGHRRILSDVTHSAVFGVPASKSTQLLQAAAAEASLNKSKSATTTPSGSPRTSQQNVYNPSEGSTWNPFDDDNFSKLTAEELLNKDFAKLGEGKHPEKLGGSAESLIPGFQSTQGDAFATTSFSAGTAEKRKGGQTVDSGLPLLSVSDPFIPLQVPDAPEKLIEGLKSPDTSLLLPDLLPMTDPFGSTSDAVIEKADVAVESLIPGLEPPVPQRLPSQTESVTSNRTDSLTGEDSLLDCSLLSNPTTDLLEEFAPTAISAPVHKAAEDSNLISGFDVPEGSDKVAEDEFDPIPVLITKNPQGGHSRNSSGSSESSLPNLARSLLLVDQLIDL

The term IC50 denotes the concentration that inhibits the measured activity by half. Turning to `CCn1c(=O)c2cc(OC[C@@](C)(N)CC(C)C)c(Cl)cc2c2ccnc(C)c21` [Example 16, (S)-8-((2-amino-2,4-dimethylpentyl)oxy)-9-chloro-5-ethyl-4-methylbenzo[c][1,7]naphthyridin-6(5H)-one], the IC50 worked out at 24 nM. In the case of `Cc1cc2c3ccc(OC[C@@](C)(N)CC(C)C)c(Cl)c3c(=O)n(C)c2cn1` [Example 18, (S)-8-((2-amino-2,4-dimethylpentyl)oxy)-7-chloro-2,5-dimethylbenzo[c][1,7]naphthyridin-6(5H)-one] it was 3 nM. In the case of `CCn1c(=O)c2cc(OC[C@@](C)(N)CC(C)C)ccc2c2ccnc(C)c21` [Example 19, (S)-8-((2-amino-2,4-dimethylpentyl)oxy)-5-ethyl-4-methylbenzo[c][1,7]naphthyridin-6(5H)-one], the IC50 was 1340 nM. In the case of `Cc1cc2c3ccc(OC[C@@](C)(N)CC(C)C)c(C)c3c(=O)n(C)c2cn1` [Example 20, (S)-8-((2-amino-2,4-dimethylpentyl)oxy)-2,5,7-trimethylbenzo[c][1,7]naphthyridin-6(5H)-one], the half-maximal inhibitory concentration (IC50) was 4.1 nM. In the case of `Cc1nccc2c3ccc(OC[C@@](C)(N)CC(C)C)cc3c(=O)n(CCO)c12` [Example 21, (S)-8-((2-amino-2,4-dimethylpentyl)oxy)-5-(2-hydroxyethyl)-4-methylbenzo[c][1,7]naphthyridin-6(5H)-one] it was 1130 nM; in that of `[2H]C([2H])([2H])n1c(=O)c2cc(OC[C@@](C)(N)CC(C)C)c(Cl)cc2c2ccnc(C)c21` [Example 22, (S)-8-((2-amino-2,4-dimethylpentyl)oxy)-9-chloro-4-methyl-5-(trideuteromethyl)benzo[c][1,7]naphthyridin-6(5H)-one], 3.2 nM. With `[2H]C([2H])([2H])n1c(=O)c2cc(OC[C@@](C)(N)CC(C)C)ccc2c2ccnc(C)c21` [Example 23, (S)-8-((2-amino-2,4-dimethylpentyl)oxy)-4-methyl-5-(trideuteromethyl)benzo[c][1,7]naphthyridin-6(5H)-one], the IC50 is 46 nM. Turning to `Cc1nccc2c3cc(C#N)c(OC[C@@](C)(N)CC(C)C)cc3c(=O)n(C3CC3)c12` [Example 24, (S)-8-((2-amino-2,4-dimethylpentyl)oxy)-5-cyclopropyl-4-methyl-6-oxo-5,6-dihydrobenzo[c][1,7]naphthyridine-9-carbonitrile], the 50% inhibitory concentration (IC50) was determined as 69 nM.

Take `Cc1nccc2c3cc(Cl)c(OC[C@@](C)(N)CC(C)C)cc3c(=O)n(C(C)C)c12` [Example 25, (S)-8-((2-amino-2,4-dimethylpentyl)oxy)-9-chloro-5-isopropyl-4-methylbenzo[c][1,7]naphthyridin-6(5H)-one]: the 50% inhibitory concentration (IC50) amounted to 227 nM.

Take `Cc1cc2c(cc1OC[C@@](C)(N)CC(C)C)c(=O)n(C)c1c(C)nccc21` [Example 26, (S)-8-((2-amino-2,4-dimethylpentyl)oxy)-4,5,9-trimethylbenzo[c][1,7]naphthyridin-6(5H)-one]: the concentration for half-maximal inhibition (IC50) is 5.4 nM. In the case of `Cc1nccc2c3cc(Cl)c(OC[C@@](C)(N)CC(C)C)cc3c(=O)n(C)c12` [Example 27, (S)-8-((2-amino-2,4-dimethylpentyl)oxy)-9-chloro-4,5-dimethylbenzo[c][1,7]naphthyridin-6(5H)-one] it was 1.7 nM.

In the case of `Cc1nccc2c1[nH]c(=O)c1cc(OC[C@@](C)(N)CC(C)C)c(Cl)cc12` [Example 28, (S)-8-((2-amino-2,4-dimethylpentyl)oxy)-9-chloro-4-methylbenzo[c][1,7]naphthyridin-6(5H)-one], the IC50 worked out at 611 nM. Take `CC(C)C[C@H](N)COc1ccc2c(c1)COc1cnccc1-2` [Example 29, (S)-1-((6H-isochromeno[3,4-c]pyridin-8-yl)oxy)-4-methylpentan-2-amine]: the IC50 came out at 13 nM. As for `CC(C)C[C@H](N)COc1ccc2c(c1)C(C)Oc1cnccc1-2` (stereo partly drawn) [Example 30, (2S)-4-methyl-1-((6-methyl-6H-isochromeno[3,4-c]pyridin-8-yl)oxy)pentan-2-amine], the figure is 17 nM; as for `CC(C)C[C@H](N)COc1ccc2c(c1)C(C)(C)Oc1cnccc1-2` [Example 31, (S)-1-((6,6-dimethyl-6H-isochromeno[3,4-c]pyridin-8-yl)oxy)-4-methylpentan-2-amine], 235 nM. For `Cc1cc2c(cc1OC[C@@H](N)CC(C)C)COc1cnccc1-2` [Example 32, (S)-4-methyl-1-((9-methyl-6H-isochromeno[3,4-c]pyridin-8-yl)oxy)pentan-2-amine], the IC50 stood at 3.2 nM. In the case of `CC(=O)Nc1cc2c(cn1)OCc1cc(OC[C@@H](N)CC(C)C)ccc1-2` [Example 33, (S)—N-(8-((2-amino-4-methylpentyl)oxy)-6H-isochromeno[3,4-c]pyridin-2-yl)acetamide] it was 2.1 nM; in that of `COC(=O)Nc1cc2c(cn1)OCc1cc(OC[C@@H](N)CC(C)C)ccc1-2` [Example 34, (S)-methyl (8-((2-amino-4-methylpentyl)oxy)-6H-isochromeno[3,4-c]pyridin-2-yl)carbamate], 3.8 nM; in that of `CC(C)C[C@H](N)COc1ccc2c(c1)COc1cnc(N)cc1-2` [Example 35, (S)-8-((2-amino-4-methylpentyl)oxy)-6H-isochromeno[3,4-c]pyridin-2-amine], 11 nM. In the case of `CC(=O)Nc1cc2c(cn1)OCc1cc(OCC(C)(N)CC(C)C)ccc1-2` (centres unmarked) [Example 36, N-(8-((2-amino-2,4-dimethylpentyl)oxy)-6H-isochromeno[3,4-c]pyridin-2-yl)acetamide] it was 2.6 nM; in that of `CC(=O)Nc1cc2c(cn1)OCc1cc(OC[C@@](C)(N)CC(C)C)ccc1-2` [Example 37, (S)—N-(8-((2-amino-2,4-dimethylpentyl)oxy)-6H-isochromeno[3,4-c]pyridin-2-yl)acetamide], 2.4 nM; in that of `CC(=O)Nc1cc2c(cn1)OCc1cc(OC[C@](C)(N)CC(C)C)ccc1-2` [Example 38, (R)—N-(8-((2-amino-2,4-dimethylpentyl)oxy)-6H-isochromeno[3,4-c]pyridin-2-yl)acetamide], 7.7 nM. Take `COC(=O)Nc1cc2c(cn1)OCc1cc(OCC(C)(N)CC(C)C)ccc1-2` (centres unmarked) [Example 39, methyl (8-((2-amino-2,4-dimethylpentyl)oxy)-6H-isochromeno[3,4-c]pyridin-2-yl)carbamate]: the IC50 is 8.1 nM. In the case of `CCOC(=O)Nc1cc2c(cn1)OCc1cc(OC[C@](C)(N)CC(C)C)ccc1-2` [Example 40, (R)-ethyl (8-((2-amino-2,4-dimethylpentyl)oxy)-6H-isochromeno[3,4-c]pyridin-2-yl)carbamate] it was 1.3 nM; in that of `CCOC(=O)Nc1cc2c(cn1)OCc1cc(OC[C@@](C)(N)CC(C)C)ccc1-2` [Example 41, (S)-ethyl (8-((2-amino-2,4-dimethylpentyl)oxy)-6H-isochromeno[3,4-c]pyridin-2-yl)carbamate], 0.62 nM; in that of `CC(C)CC(C)(N)COc1ccc2c(c1)COc1cnc(NCC(F)(F)F)cc1-2` (centres unmarked) [Example 42, 8-((2-amino-2,4-dimethylpentyl)oxy)-N-(2,2,2-trifluoroethyl)-6H-isochromeno[3,4-c]pyridin-2-amine], 88 nM.

In the case of `CC(C)C[C@](C)(N)COc1ccc2c(c1)COc1cnc(NCC(F)(F)F)cc1-2` [Example 43, (S)-8-((2-amino-2,4-dimethylpentyl)oxy)-N-(2,2,2-trifluoroethyl)-6H-isochromeno[3,4-c]pyridin-2-amine], the IC50 is 56 nM.

Turning to `CC(C)C[C@@](C)(N)COc1ccc2c(c1)COc1cnc(NCC(F)(F)F)cc1-2` [Example 44, (R)-8-((2-amino-2,4-dimethylpentyl)oxy)-N-(2,2,2-trifluoroethyl)-6H-isochromeno[3,4-c]pyridin-2-amine], the IC50 was determined as 181 nM. For the compound `COC(=O)Nc1cc2c(cn1)OCc1c-2ccc(OC[C@@](C)(N)CC(C)C)c1F` [Example 45, (S)-methyl (8-((2-amino-2,4-dimethylpentyl)oxy)-7-fluoro-6H-isochromeno[3,4-c]pyridin-2-yl)carbamate], the IC50 was found to be 0.91 nM. Turning to `CCOC(=O)Nc1nc(Cl)c2c(c1Cl)-c1ccc(OC[C@@](C)(N)CC(C)C)cc1CO2` [Example 46, (S)-ethyl (8-((2-amino-2,4-dimethylpentyl)oxy)-1,4-dichloro-6H-isochromeno[3,4-c]pyridin-2-yl)carbamate], the IC50 turned out to be 45 nM. As to `CCOC(=O)Nc1ncc2c(c1Cl)-c1ccc(OC[C@@](C)(N)CC(C)C)cc1CO2` [Example 47, (S)-ethyl (8-((2-amino-2,4-dimethylpentyl)oxy)-1-chloro-6H-isochromeno[3,4-c]pyridin-2-yl)carbamate], the IC50 is 26 nM.

With `CC(C)C[C@](C)(N)COc1ccc2c(c1)COc1cnc(C(F)F)cc1-2` [Example 48, (S)-1-((2-(difluoromethyl)-6H-isochromeno[3,4-c]pyridin-8-yl)oxy)-2,4-dimethylpentan-2-amine], the IC50 was determined as 13 nM. As to `COC(=O)Nc1cc2c(cn1)OCc1cc(OC[C@@](C)(N)CC(C)C)c(F)cc1-2` [Example 49, (S)-methyl (8-((2-amino-2,4-dimethylpentyl)oxy)-9-fluoro-6H-isochromeno[3,4-c]pyridin-2-yl)carbamate], the IC50 was 5.4 nM.

Consider `Cc1nccc2c1OCc1cc(OC[C@@](C)(N)CC(C)C)ccc1-2` [Example 50, (S)-2,4-dimethyl-1-((4-methyl-6H-isochromeno[3,4-c]pyridin-8-yl)oxy)pentan-2-amine], for which the IC50 was 11 nM. On to `Cc1cc2c(cn1)OCc1cc(OC[C@@](C)(N)CC(C)C)ccc1-2` [Example 51, (S)-2,4-dimethyl-1-((2-methyl-6H-isochromeno[3,4-c]pyridin-8-yl)oxy)pentan-2-amine], for which the IC50 turned out to be 121 nM.

The record behind these values is US10174044B2, “Fused pyridines as kinase inhibitors” (BRISTOL-MYERS SQUIBB COMPANY, priority 2015, dated 2019).
